Values after ≈ are worked out from the molar mass of the structure shown.
What was measured:
[1] = Hemolytic activity in human red blood cells at 400 ug/ml incubated for 45 mins by spectrophotometric analysis relative to control; assay type: toxicity, cell-based, Erythrocyte; details: red blood cells (erythrocytes), at 400 µg/mL, read-out: Activity
Klebsiella pneumoniae = assay: Antibacterial activity against wild-type Klebsiella pneumoniae ATCC 13883 assessed as inhibition of bacterial growth incubated for 18 hrs; assay type: functional; details: read-out: MIC100
[2] = Cytotoxicity against human HepG2 cells incubated for 40 hrs by celltiter-glo luminescent cell viability assay; assay type: toxicity, cell-based
Escherichia coli = assay: Antibacterial activity against wild-type Escherichia coli ATCC 25922 assessed as inhibition of bacterial growth incubated for 18 hrs; assay type: functional; details: read-out: MIC100

| MIC (Klebsiella pneumoniae) | MIC (Escherichia coli) | Compound | hemolysis at 0.75 h, 400 ug/ml [1] | IC50 at 40 h [2] |
| --- | --- | --- | --- | --- |
| 32 µg/mL (≈ 21.6 µM) | 16 µg/mL (≈ 10.8 µM) | CC[C@H](C)[C@@H](NC(=O)[C@@H](NC(=O)[C@H](CCC(=O)O)NC(=O)[C@H](Cc1ccccc1)NC(=O)[C@@H](CCN)NC(=O)[C@H](CCN)NC(=O)[C@H](CO)NC(=O)[C@@H](Cc1c[nH]c2ccccc12)NC(=O)[C@@H](CO)NC(=O)[C@H](C)NC(=O)[C@@H](CCN)NC(=O)[C@H](NC(=O)[C@H](C)N)C(C)C)C(C)C)C(=O)N[C@@H](C)C(=O)O | 31.9% | 74 µg/mL (≈ 50 µM) |
| 64 µg/mL (≈ 47.3 µM) | > 64 µg/mL | CC(C)[C@H](NC(=O)[C@H](CCC(=O)O)NC(=O)[C@H](Cc1ccccc1)NC(=O)[C@@H](CCN)NC(=O)[C@H](CCN)NC(=O)[C@H](CO)NC(=O)[C@@H](Cc1c[nH]c2ccccc12)NC(=O)[C@@H](CO)NC(=O)CNC(=O)[C@@H](CCN)NC(=O)[C@H](N)C(C)C)C(=O)N[C@H](C)C(=O)N[C@@H](C)C(=O)O | 4.3% | > 170 µg/mL |
| > 64 µg/mL | > 64 µg/mL | CC[C@H](C)[C@@H](NC(=O)[C@@H](NC(=O)[C@H](CCC(=O)O)NC(=O)[C@H](C)NC(=O)[C@@H](CCN)NC(=O)[C@H](CCN)NC(=O)[C@H](CO)NC(=O)[C@@H](Cc1c[nH]c2ccccc12)NC(=O)[C@@H](CO)NC(=O)CNC(=O)[C@@H](CCN)NC(=O)[C@H](NC(=O)[C@H](C)N)C(C)C)C(C)C)C(=O)N[C@@H](C)C(=O)O | 0% | > 170 µg/mL |
| > 64 µg/mL | > 64 µg/mL | CC[C@H](C)[C@@H](NC(=O)[C@@H](NC(=O)[C@H](CCC(=O)O)NC(=O)[C@H](Cc1ccccc1)NC(=O)[C@@H](CCN)NC(=O)[C@H](CCN)NC(=O)[C@H](C)NC(=O)[C@@H](Cc1c[nH]c2ccccc12)NC(=O)[C@@H](CO)NC(=O)CNC(=O)[C@@H](CCN)NC(=O)[C@H](N)C(C)C)C(C)C)C(=O)N[C@@H](C)C(=O)O | 0% | > 170 µg/mL |
| 64 µg/mL (≈ 42.8 µM) | 64 µg/mL (≈ 42.8 µM) | CC[C@H](C)[C@@H](NC(=O)[C@@H](NC(=O)[C@H](CCC(=O)O)NC(=O)[C@H](Cc1ccccc1)NC(=O)[C@@H](CCN)NC(=O)[C@H](CCN)NC(=O)[C@H](CO)NC(=O)[C@@H](Cc1c[nH]c2ccccc12)NC(=O)[C@@H](CO)NC(=O)CNC(=O)[C@@H](CCN)NC(=O)[C@H](NC(=O)[C@@H](N)CCN)C(C)C)C(C)C)C(=O)N[C@@H](C)C(=O)O | 10% | > 70 µg/mL |
| > 64 µg/mL | > 64 µg/mL | CC[C@H](C)[C@@H](NC(=O)[C@@H](NC(=O)[C@H](CCC(=O)O)NC(=O)[C@H](Cc1ccccc1)NC(=O)[C@@H](CCN)NC(=O)[C@H](CCN)NC(=O)[C@H](CO)NC(=O)[C@@H](C)NC(=O)[C@@H](CO)NC(=O)CNC(=O)[C@@H](CCN)NC(=O)[C@H](NC(=O)[C@H](C)N)C(C)C)C(C)C)C(=O)N[C@@H](C)C(=O)O | 0% | > 170 µg/mL |
| 64 µg/mL (≈ 46.4 µM) | > 64 µg/mL | CC[C@H](C)[C@@H](NC(=O)[C@@H](NC(=O)[C@H](CCC(=O)O)NC(=O)[C@H](Cc1ccccc1)NC(=O)[C@@H](CCN)NC(=O)[C@H](CCN)NC(=O)[C@H](CO)NC(=O)[C@@H](Cc1c[nH]c2ccccc12)NC(=O)[C@@H](C)NC(=O)CNC(=O)[C@@H](CCN)NC(=O)[C@H](N)C(C)C)C(C)C)C(=O)N[C@@H](C)C(=O)O | 0% | > 170 µg/mL |
| 32 µg/mL (≈ 22.3 µM) | 64 µg/mL (≈ 44.5 µM) | CC[C@H](C)[C@@H](NC(=O)[C@@H](NC(=O)[C@H](CCC(=O)O)NC(=O)[C@H](Cc1ccccc1)NC(=O)[C@@H](CCN)NC(=O)[C@H](CCN)NC(=O)[C@H](CO)NC(=O)[C@@H](Cc1c[nH]c2ccccc12)NC(=O)[C@@H](CO)NC(=O)CNC(=O)[C@@H](CCN)NC(=O)[C@@H](C)NC(=O)[C@H](C)N)C(C)C)C(=O)N[C@@H](C)C(=O)O | 1.3% | > 170 µg/mL |
| > 64 µg/mL | > 64 µg/mL | CC[C@H](C)[C@@H](NC(=O)[C@@H](NC(=O)[C@H](CCC(=O)O)NC(=O)[C@H](Cc1ccccc1)NC(=O)[C@@H](CCN)NC(=O)[C@H](CCN)NC(=O)[C@H](CO)NC(=O)[C@@H](Cc1c[nH]c2ccccc12)NC(=O)[C@@H](CO)NC(=O)CNC(=O)[C@@H](CCN)NC(=O)[C@H](NC(=O)[C@@H](N)CC(=O)O)C(C)C)C(C)C)C(=O)N[C@@H](C)C(=O)O | 0% | > 170 µg/mL |
| > 64 µg/mL | > 64 µg/mL | CC[C@H](C)[C@@H](NC(=O)[C@@H](NC(=O)[C@H](CCC(=O)O)NC(=O)[C@H](Cc1ccccc1)NC(=O)[C@@H](CCN)NC(=O)[C@H](CCN)NC(=O)[C@H](CO)NC(=O)[C@@H](Cc1c[nH]c2ccccc12)NC(=O)[C@@H](CC(=O)O)NC(=O)CNC(=O)[C@@H](CCN)NC(=O)[C@H](N)C(C)C)C(C)C)C(=O)N[C@@H](C)C(=O)O | 0% | > 170 µg/mL |
| > 64 µg/mL | > 64 µg/mL | CC[C@H](C)[C@@H](NC(=O)[C@@H](NC(=O)[C@H](CCC(=O)O)NC(=O)[C@H](Cc1ccccc1)NC(=O)[C@@H](CCN)NC(=O)[C@H](CCN)NC(=O)[C@H](CO)NC(=O)[C@@H](Cc1c[nH]c2ccccc12)NC(=O)[C@@H](CO)NC(=O)CNC(=O)[C@H](N)CCN)C(C)C)C(=O)N[C@@H](C)C(=O)O | 0% | > 170 µg/mL |
| 32 µg/mL (≈ 23.2 µM) | 32 µg/mL (≈ 23.2 µM) | CC[C@H](C)[C@@H](NC(=O)[C@@H](NC(=O)[C@H](CCC(=O)O)NC(=O)[C@H](Cc1ccccc1)NC(=O)[C@@H](CCN)NC(=O)[C@H](CCN)NC(=O)[C@H](CO)NC(=O)[C@@H](Cc1c[nH]c2ccccc12)NC(=O)[C@@H](CO)NC(=O)CNC(=O)[C@@H](CN)NC(=O)[C@H](N)C(C)C)C(C)C)C(=O)N[C@@H](C)C(=O)O | 6.3% | 125 µg/mL (≈ 90.5 µM) |
| 8 µg/mL (≈ 5.41 µM) | 8 µg/mL (≈ 5.41 µM) | CC[C@H](C)[C@@H](NC(=O)[C@@H](NC(=O)[C@H](CCC(=O)O)NC(=O)[C@H](Cc1ccccc1)NC(=O)[C@@H](CCN)NC(=O)[C@H](CCN)NC(=O)[C@H](CO)NC(=O)[C@@H](Cc1c[nH]c2ccccc12)NC(=O)[C@@H](CO)NC(=O)CNC(=O)[C@@H](CCN)NC(=O)[C@H](NC(=O)[C@H](C)NC)C(C)C)C(C)C)C(=O)N[C@@H](C)C(=O)O | 5.3% | > 70 µg/mL |
| 64 µg/mL (≈ 46.9 µM) | > 64 µg/mL | CC[C@H](C)[C@@H](NC(=O)[C@@H](NC(=O)[C@H](CCC(=O)O)NC(=O)[C@H](Cc1ccccc1)NC(=O)[C@@H](C)NC(=O)[C@H](CCN)NC(=O)[C@H](CO)NC(=O)[C@@H](Cc1c[nH]c2ccccc12)NC(=O)[C@@H](CO)NC(=O)CNC(=O)[C@@H](CCN)NC(=O)[C@H](N)C(C)C)C(C)C)C(=O)N[C@@H](C)C(=O)O | 0% | > 170 µg/mL |
| 32 µg/mL (≈ 20.8 µM) | 16 µg/mL (≈ 10.4 µM) | CC[C@H](C)[C@@H](NC(=O)[C@@H](NC(=O)[C@H](CCC(=O)O)NC(=O)[C@H](Cc1ccccc1)NC(=O)[C@@H](CCN)NC(=O)[C@H](CCN)NC(=O)[C@H](CO)NC(=O)[C@@H](Cc1c[nH]c2ccccc12)NC(=O)[C@@H](CO)NC(=O)[C@H](CCCCN)NC(=O)[C@@H](CCN)NC(=O)[C@H](NC(=O)[C@H](C)N)C(C)C)C(C)C)C(=O)N[C@@H](C)C(=O)O | 0.5% | > 170 µg/mL |
| 1 µg/mL (≈ 0.66 µM) | 2 µg/mL (≈ 1.32 µM) | CC[C@H](C)[C@@H](NC(=O)[C@@H](NC(=O)[C@H](CCC(=O)O)NC(=O)[C@H](Cc1cccc2ccccc12)NC(=O)[C@@H](CCN)NC(=O)[C@H](CCN)NC(=O)[C@H](CO)NC(=O)[C@@H](Cc1c[nH]c2ccccc12)NC(=O)[C@@H](CO)NC(=O)CNC(=O)[C@@H](CCN)NC(=O)[C@H](NC(=O)[C@H](C)N)C(C)C)C(C)C)C(=O)N[C@@H](C)C(=O)O | 52.9% | 83 µg/mL (≈ 54.8 µM) |
| > 64 µg/mL | > 64 µg/mL | CC[C@H](C)[C@@H](NC(=O)[C@@H](NC(=O)[C@H](CCC(=O)O)NC(=O)[C@H](Cc1ccccc1)NC(=O)[C@@H](CCN)NC(=O)[C@H](CCN)NC(=O)[C@H](CO)NC(=O)[C@@H](Cc1c[nH]c2ccccc12)NC(=O)[C@@H](CO)NC(=O)CNC(=O)[C@@H](CCN)NC(=O)[C@H](NC(=O)C(F)(F)CN)C(C)C)C(C)C)C(=O)N[C@@H](C)C(=O)O | 0% | > 170 µg/mL |
| 64 µg/mL (≈ 48.5 µM) | 64 µg/mL (≈ 48.5 µM) | CC[C@H](C)[C@@H](NC(=O)[C@@H](NC(=O)[C@H](CCC(=O)O)NC(=O)[C@H](C)NC(=O)[C@@H](CCN)NC(=O)[C@H](CCN)NC(=O)[C@H](CO)NC(=O)[C@@H](Cc1c[nH]c2ccccc12)NC(=O)[C@@H](CO)NC(=O)CNC(=O)[C@@H](CCN)NC(=O)[C@H](N)C(C)C)C(C)C)C(=O)N[C@@H](C)C(=O)O | 2.5% | > 170 µg/mL |
| 32 µg/mL (≈ 22.3 µM) | 32 µg/mL (≈ 22.3 µM) | CC[C@H](C)[C@@H](NC(=O)[C@@H](NC(=O)[C@H](CCC(=O)O)NC(=O)[C@H](Cc1ccccc1)NC(=O)[C@@H](CCN)NC(=O)[C@H](CCN)NC(=O)[C@H](CO)NC(=O)[C@@H](Cc1c[nH]c2ccccc12)NC(=O)[C@@H](CO)NC(=O)CNC(=O)[C@@H](CCN)NC(=O)[C@H](N)C(C)C)C(C)C)C(=O)N[C@H](C(=O)O)C(C)(C)C | 12.1% | 43 µg/mL (≈ 29.9 µM) |
| 64 µg/mL (≈ 45.9 µM) | 64 µg/mL (≈ 45.9 µM) | CC(C)C[C@@H](NC(=O)[C@@H](NC(=O)[C@H](CCC(=O)O)NC(=O)[C@H](Cc1ccccc1)NC(=O)[C@@H](CCN)NC(=O)[C@H](CCN)NC(=O)[C@H](CO)NC(=O)[C@@H](Cc1c[nH]c2ccccc12)NC(=O)[C@@H](CO)NC(=O)CNC(=O)[C@@H](CCN)NC(=O)[C@H](N)C(C)C)C(C)C)C(=O)N[C@@H](C)C(=O)O | 45.9% | 161 µg/mL (≈ 115 µM) |
